How the values were obtained:
Spodoptera littoralis = assay: Antifeedant activity against final stadium larvae of Spodoptera littoralis in compound-treated sucrose-treated glass-fibre disks assessed as amount of disks eaten at 100 ppm after 18 hr by binary choice feeding bioassay; format: functional
Spodoptera frugiperda = assay: Antifeedant activity against final stadium larvae of Spodoptera frugiperda (fall armyworm) in compound-treated sucrose-treated glass-fibre discs assessed as amount of discs eaten at 100 ppm after 18 hr by binary choice feeding bioassay; format: functional

Compound: CC[C@H](C)C(=O)O[C@H]1[C@H](O)C[C@@H]2[C@@](C)([C@@H]3C[C@H]4CCO[C@H]4O3)[C@H](C)C[C@H](OC(C)=O)[C@@]2(COC(C)=O)[C@@]12CO2 [14,15-DIHYDROAJUGAPITIN]
- AFI (Spodoptera littoralis): 76%
- AFI (Spodoptera frugiperda): 74%

Compound: CC[C@H](C)C(=O)O[C@H]1[C@@H](O)C[C@@H]2[C@@](C)([C@@H]3C[C@H]4CCO[C@H]4O3)[C@H](C)C[C@H](OC(C)=O)[C@@]2(COC(C)=O)[C@@]12CO2 [IVAIN IV]
- AFI (Spodoptera littoralis): 48%
- AFI (Spodoptera frugiperda): 61%

— ChEMBL document CHEMBL3045176, “Occurrence of the antifeedant 14,15-dihydroajugapitin in the aerial parts of Ajuga iva from Algeria” (2000)
